Source: patent EP4635500A1, “THERAPEUTIC AGENT FOR BACTERIAL INFECTION” (Sumitomo Pharma Co., Ltd., priority 2022, dated 2024)
Several values for one entry are separate records, joined by “and”; a condition that tells them apart may be missing. Equal values may be shown once. Read-outs that look alike come from different tables or passages of the source.

Experiments:
53 CRE and CPE strains = test: MICrange, MIC50, MIC80, MIC90 for 53 bacterial isolates (Example 5, Table 5); assay type: cell-based; settings: 53 bacterial isolates
Enterobacterales = test: MIC, broth microdilution, CDC/FDA Antibiotic Resistance Isolate Bank (Example 7, Tables 8, 11, 12); assay type: cell-based
A. baumannii = test: MIC, broth microdilution, CDC/FDA Antibiotic Resistance Isolate Bank (Example 7, Tables 9, 13, 14); assay type: cell-based, Acinetobacter baumannii
[1] = 154 strains of Enterobacterales
[2] = carbapenemase-producing Enterobacterales, Metallo-β-lactamase (N = 47)
[3] = carbapenemase-producing Enterobacterales, Serine carbapenemase (N=61)

colistin
2 µg/mL: MIC (Enterobacterales; Klebsiella pneumoniae KUB No. 5829, AR Bank #524) | MIC80 (A. baumannii; 55 isolates of A. baumannii) | MIC90 (A. baumannii; 55 isolates of A. baumannii) | MIC (A. baumannii; A. baumannii KUB No. 5709, AR Bank #276, no carbapenemase genes (-)) | MIC (A. baumannii; KUB No. 5722, AR Bank #259) | MIC (A. baumannii; KUB No. 5729, AR Bank #296) | MIC (A. baumannii; KUB No. 5730, AR Bank #297) | MIC (A. baumannii; KUB No. 5732, AR Bank #299) | MIC (A. baumannii; KUB No. 5738, AR Bank #305) | MIC (A. baumannii; KUB No. 5740, AR Bank #307) | MIC (A. baumannii; KUB No. 5742, AR Bank #309) | MIC (A. baumannii; KUB No. 5746, AR Bank #313)
0.5 µg/mL: MIC50 (53 CRE and CPE strains) | MIC50 (Enterobacterales; [1]) | MIC (Enterobacterales; Enterobacter aerogenes, KUB No. 5571, AR Bank # 74) | MIC (Enterobacterales; Enterobacter cloacae KUB No. 5792, AR Bank #448) | MIC (Enterobacterales; Enterobacter cloacae KUB No. 5807, AR Bank #501) | MIC (Enterobacterales; Enterobacter cloacae KUB No. 5808, AR Bank #502) | MIC (Enterobacterales; Enterobacter cloacae complex, KUB No. 5661, AR Bank # 164) | MIC (Enterobacterales; Enterobacter cloacae, KUB No. 5529, AR Bank# 32) | MIC (Enterobacterales; Enterobacter cloacae, KUB No. 5535, AR Bank# 38) | MIC (Enterobacterales; Enterobacter cloacae, KUB No. 5557, AR Bank# 60) | MIC (Enterobacterales; Enterobacter cloacae, KUB No. 5562, AR Bank # 65) | MIC (Enterobacterales; Enterobacter cloacae, KUB No. 5763, AR Bank # 367) | MIC (Enterobacterales; Enterobacter cloacae, KUB No. 5778, AR Bank # 432) | MIC (Enterobacterales; Escherichia coli, KUB No. 5545, AR Bank# 48) | MIC (Enterobacterales; Escherichia coli, KUB No. 5552, AR Bank# 55) | MIC (Enterobacterales; Escherichia coli, KUB No. 5555, AR Bank# 58) | MIC (Enterobacterales; Escherichia coli, KUB No. 5578, AR Bank # 81) | MIC (Enterobacterales; Escherichia coli, KUB No. 5581, AR Bank # 84) | MIC (Enterobacterales; Escherichia coli, KUB No. 5586, AR Bank # 89) | MIC (Enterobacterales; Escherichia coli, KUB No. 5601, AR Bank # 104) | MIC (Enterobacterales; Escherichia coli, KUB No. 5611, AR Bank # 114) | MIC (Enterobacterales; Escherichia coli, KUB No. 5616, AR Bank # 119) | MIC (Enterobacterales; Escherichia coli, KUB No. 5764, AR Bank # 368) | MIC (Enterobacterales; Escherichia coli, KUB No. 5765, AR Bank # 369) | MIC (Enterobacterales; Escherichia coli, KUB No. 5768, AR Bank # 372) | MIC (Enterobacterales; Escherichia coli, KUB No. 5769, AR Bank # 373) | MIC (Enterobacterales; Escherichia coli, KUB No. 5770, AR Bank # 374) | MIC (Enterobacterales; Escherichia coli, KUB No. 5780, AR Bank # 434) | MIC (Enterobacterales; Klebsiella oxytoca, KUB No. 5568, AR Bank # 71) | MIC (Enterobacterales; Klebsiella oxytoca, KUB No. 5776, AR Bank # 380) | MIC (Enterobacterales; Klebsiella ozaenae, KUB No. 5548, AR Bank# 51) | MIC (Enterobacterales; Klebsiella pneumoniae KUB No. 5784, AR Bank #438) | MIC (Enterobacterales; Klebsiella pneumoniae KUB No. 5797, AR Bank #453) | MIC (Enterobacterales; Klebsiella pneumoniae KUB No. 5811, AR Bank #506) | MIC (Enterobacterales; Klebsiella pneumoniae, KUB No. 5531, AR Bank# 34) | MIC (Enterobacterales; Klebsiella pneumoniae, KUB No. 5536, AR Bank# 39) | MIC (Enterobacterales; Klebsiella pneumoniae, KUB No. 5546, AR Bank# 49) | MIC (Enterobacterales; Klebsiella pneumoniae, KUB No. 5563, AR Bank # 66) | MIC (Enterobacterales; Klebsiella pneumoniae, KUB No. 5572, AR Bank # 75) | MIC (Enterobacterales; Klebsiella pneumoniae, KUB No. 5577, AR Bank # 80) | MIC (Enterobacterales; Klebsiella pneumoniae, KUB No. 5604, AR Bank # 107) | MIC (Enterobacterales; Klebsiella pneumoniae, KUB No. 5609, AR Bank # 112) | MIC (Enterobacterales; Klebsiella pneumoniae, KUB No. 5610, AR Bank # 113) | MIC (Enterobacterales; Klebsiella pneumoniae, KUB No. 5626, AR Bank # 129) | MIC (Enterobacterales; Klebsiella pneumoniae, KUB No. 5757, AR Bank # 361) | MIC (Enterobacterales; Klebsiella pneumoniae, KUB No. 5759, AR Bank # 363) | MIC (Enterobacterales; Klebsiella pneumoniae, KUB No. 5772, AR Bank # 376) | MIC (Enterobacterales; Salmonella Senftenberg, KUB No. 5624, AR Bank # 127) | MIC50 (Enterobacterales; [2]) | MIC50 (Enterobacterales; [3]) | MIC (A. baumannii; A. baumannii KUB No. 5707, AR Bank #274, OXA-66, OXA-72) | MIC (A. baumannii; A. baumannii KUB No. 5710, AR Bank #277, OXA-24, OXA-65) | MIC (A. baumannii; A. baumannii KUB No. 5718, AR Bank #285, OXA-24, OXA-65) | MIC (A. baumannii; KUB No. 5731, AR Bank #298)
0.2 µg/mL: MIC (Enterobacterales; Escherichia, KUB No. 57, AR Bank # 436 (row cut off))
1 µg/mL: MIC80 (53 CRE and CPE strains) | MIC (Enterobacterales; Citrobacter fremidii, KUB No. 5613, AR Bank # 116) | MIC (Enterobacterales; Enterobacter cloacae group, KUB No. 5629, AR Bank # 132) | MIC (Enterobacterales; Enterobacter cloacae, KUB No. 5590, AR Bank # 93) | MIC (Enterobacterales; Enterobacter cloacae, KUB No. 5761, AR Bank # 365) | MIC (Enterobacterales; Escherichia coli, KUB No. 5564, AR Bank # 67) | MIC (Enterobacterales; Escherichia coli, KUB No. 5615, AR Bank # 118) | MIC (Enterobacterales; Klebsiella ozaenae, KUB No. 5593, AR Bank # 96) | MIC (Enterobacterales; Klebsiella pneumoniae KUB No. 5809, AR Bank #504) | MIC (Enterobacterales; Klebsiella pneumoniae KUB No. 5810, AR Bank #505) | MIC (Enterobacterales; Klebsiella pneumoniae, KUB No. 5565, AR Bank # 68) | MIC (Enterobacterales; Klebsiella pneumoniae, KUB No. 5612, AR Bank # 115) | MIC (Enterobacterales; Klebsiella pneumoniae, KUB No. 5614, AR Bank # 117) | MIC (Enterobacterales; Klebsiella pneumoniae, KUB No. 5617, AR Bank # 120) | MIC50 (A. baumannii; 55 isolates of A. baumannii) | MIC (A. baumannii; A. baumannii KUB No. 5575, AR Bank #78, OXA-71) | MIC (A. baumannii; A. baumannii KUB No. 5580, AR Bank #83, OXA-23, OXA-69, NDM-1) | MIC (A. baumannii; A. baumannii KUB No. 5585, AR Bank #88, OXA-64, NDM-1) | MIC (A. baumannii; A. baumannii KUB No. 5598, AR Bank #101, OXA-24, OXA-65) | MIC (A. baumannii; A. baumannii KUB No. 5599, AR Bank #102, OXA-66) | MIC (A. baumannii; A. baumannii KUB No. 5706, AR Bank #273, OXA-23, OXA-66) | MIC (A. baumannii; A. baumannii KUB No. 5708, AR Bank #275, OXA-23, OXA-66) | MIC (A. baumannii; A. baumannii KUB No. 5711, AR Bank #278, OXA-23, OXA-66) | MIC (A. baumannii; A. baumannii KUB No. 5712, AR Bank #279, OXA-23, OXA-66) | MIC (A. baumannii; A. baumannii KUB No. 5713, AR Bank #280, OXA-66) | MIC (A. baumannii; A. baumannii KUB No. 5714, AR Bank #281, OXA-82) | MIC (A. baumannii; A. baumannii KUB No. 5715, AR Bank #282, OXA-23, OXA-66) | MIC (A. baumannii; A. baumannii KUB No. 5716, AR Bank #283, OXA-23, OXA-66) | MIC (A. baumannii; A. baumannii KUB No. 5717, AR Bank #284, OXA-24, OXA-65) | MIC (A. baumannii; KUB No. 5719, AR Bank #286) | MIC (A. baumannii; KUB No. 5720, AR Bank #287) | MIC (A. baumannii; KUB No. 5723, AR Bank #290) | MIC (A. baumannii; KUB No. 5724, AR Bank #291) | MIC (A. baumannii; KUB No. 5725, AR Bank #292) | MIC (A. baumannii; KUB No. 5726, AR Bank #293) | MIC (A. baumannii; KUB No. 5727, AR Bank #294) | MIC (A. baumannii; KUB No. 5728, AR Bank #295) | MIC (A. baumannii; KUB No. 5733, AR Bank #300) | MIC (A. baumannii; KUB No. 5734, AR Bank #301) | MIC (A. baumannii; KUB No. 5735, AR Bank #302) | MIC (A. baumannii; KUB No. 5739, AR Bank #306) | MIC (A. baumannii; KUB No. 5741, AR Bank #308) | MIC (A. baumannii; KUB No. 5743, AR Bank #310) | MIC (A. baumannii; KUB No. 5744, AR Bank #311) | MIC (A. baumannii; KUB No. 5745, AR Bank #312)
0.25 µg/mL: MIC (A. baumannii; A. baumannii KUB No. 5567, AR Bank #70, OXA-58, OXA-100)
32 µg/mL: MIC90 (53 CRE and CPE strains) | MIC (Enterobacterales; Klebsiella pneumoniae KUB No. 5827, AR Bank #522) | MIC (Enterobacterales; Klebsiella pneumoniae, KUB No. 5603, AR Bank # 106) | MIC (Enterobacterales; Klebsiella pneumoniae, KUB No. 5606, AR Bank # 109)
>64 µg/mL: MIC90 (Enterobacterales; [1]) | MIC90 (Enterobacterales; [3]) | MIC (A. baumannii; KUB No. 5721, AR Bank #288) | MIC (A. baumannii; KUB No. 5736, AR Bank #303)
0.5 µg/mL and 1 µg/mL: MIC (A. baumannii)
4 µg/mL: MIC (Enterobacterales; Klebsiella pneumoniae KUB No. 5828, AR Bank #523) | MIC (Enterobacterales; Klebsiella pneumoniae, KUB No. 5537, AR Bank# 40) | MIC (Enterobacterales; Klebsiella pneumoniae, KUB No. 5543, AR Bank# 46) | MIC (A. baumannii; KUB No. 5737, AR Bank #304)
8 µg/mL: MIC80 (Enterobacterales; [1]) | MIC (Enterobacterales; Enterobacter aerogenes, KUB No. 5559, AR Bank # 62) | MIC (Enterobacterales; Enterobacter cloacae, KUB No. 5570, AR Bank # 73) | MIC (Enterobacterales; Enterobacter cloacae, KUB No. 5660, AR Bank # 163) | MIC (Enterobacterales; Klebsiella pneumoniae KUB No. 5812, AR Bank #507) | MIC (Enterobacterales; Klebsiella pneumoniae, KUB No. 5594, AR Bank # 97) | MIC (Enterobacterales; Raoultella ornithinolvtica, KUB No. 5631, AR Bank # 134) | MIC90 (Enterobacterales; [2]) | MIC90 (Enterobacterales; metallo-β-lactamase-producing strains of Enterobacterales)
16 µg/mL: MIC (Enterobacterales; Klebsiella pneumoniae KUB No. 5830, AR Bank #525) | MIC (Enterobacterales; Klebsiella pneumoniae, KUB No. 5622, AR Bank # 125)
64 µg/mL: MIC (Enterobacterales; Klebsiella pneumoniae, KUB No. 55, AR Bank# 47) | MIC (Enterobacterales; Klebsiella pneumoniae, KUB No. 5584, AR Bank # 87) | MIC (Enterobacterales; Klebsiella pneumoniae, KUB No. 5760, AR Bank # 364) | MIC (Enterobacterales; Proteus mirabilis, KUB No. 5775, AR Bank # 379)
